# The source made the active and inactive calls. The calls are words filed in the database; no cut-off is given here.
# How the values were obtained:
# HepG2 [1] = experiment: Increase in glucose consumption in human HepG2 cells assessed as glucose content in medium at 10^-6 M measured after 24 hrs by glucose oxidase method relative to control; type: functional
# [2] = target: AMP-activated protein kinase (AMPK) alpha-1/beta-1/gamma-1 (Homo sapiens) (UniProt P54619+Q9Y478+Q13131); experiment: Agonist activity at AMPKalpha1beta1gamma1 (unknown origin); type: protein-complex assay
# Sequence of AMP-activated protein kinase (AMPK) alpha-1/beta-1/gamma-1 (Homo sapiens) (P54619 whole entry): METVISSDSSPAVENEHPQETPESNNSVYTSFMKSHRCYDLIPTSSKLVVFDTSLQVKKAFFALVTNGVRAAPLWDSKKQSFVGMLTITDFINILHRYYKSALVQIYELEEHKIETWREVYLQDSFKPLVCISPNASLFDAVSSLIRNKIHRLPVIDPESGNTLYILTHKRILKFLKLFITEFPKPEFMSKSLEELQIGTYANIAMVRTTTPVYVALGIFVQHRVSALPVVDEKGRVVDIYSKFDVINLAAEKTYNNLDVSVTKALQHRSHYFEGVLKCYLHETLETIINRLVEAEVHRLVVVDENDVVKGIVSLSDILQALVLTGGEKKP
# Sequence of AMP-activated protein kinase (AMPK) alpha-1/beta-1/gamma-1 (Homo sapiens) (Q13131 whole entry partner): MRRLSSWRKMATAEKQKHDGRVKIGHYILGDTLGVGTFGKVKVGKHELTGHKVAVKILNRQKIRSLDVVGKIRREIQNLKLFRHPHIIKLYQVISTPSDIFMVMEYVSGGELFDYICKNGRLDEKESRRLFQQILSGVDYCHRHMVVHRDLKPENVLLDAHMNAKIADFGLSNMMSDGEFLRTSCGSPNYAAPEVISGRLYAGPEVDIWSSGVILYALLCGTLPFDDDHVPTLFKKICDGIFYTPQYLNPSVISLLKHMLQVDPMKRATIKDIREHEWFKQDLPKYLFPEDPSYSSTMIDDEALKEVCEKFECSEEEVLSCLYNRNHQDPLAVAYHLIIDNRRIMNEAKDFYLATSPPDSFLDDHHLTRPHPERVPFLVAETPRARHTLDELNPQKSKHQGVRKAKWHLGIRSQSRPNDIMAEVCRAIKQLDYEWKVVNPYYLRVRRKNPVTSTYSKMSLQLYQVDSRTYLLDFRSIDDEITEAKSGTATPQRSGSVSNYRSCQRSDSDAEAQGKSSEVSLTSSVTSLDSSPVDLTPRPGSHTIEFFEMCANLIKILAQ
# Sequence of AMP-activated protein kinase (AMPK) alpha-1/beta-1/gamma-1 (Homo sapiens) (Q9Y478 2-270 partner limits assumed): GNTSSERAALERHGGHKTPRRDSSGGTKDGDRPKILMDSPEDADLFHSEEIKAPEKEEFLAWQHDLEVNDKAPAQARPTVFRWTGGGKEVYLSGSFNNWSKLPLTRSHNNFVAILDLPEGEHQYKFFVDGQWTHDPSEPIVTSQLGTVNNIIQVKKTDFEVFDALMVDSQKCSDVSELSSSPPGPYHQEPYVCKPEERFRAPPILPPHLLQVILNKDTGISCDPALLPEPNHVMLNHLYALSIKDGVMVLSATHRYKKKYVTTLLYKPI
# HepG2 [3] = experiment: Activation of AMPKalpha in human HepG2 cells assessed as induction of AMPKalpha phosphorylation at Thr172 residue at 10 uM by Western blot analysis; type: cell-based
# [4] = target: AMP-activated protein kinase, AMPK (Homo sapiens) (UniProt P54646+O43741+P54619+Q9UGJ0+Q9Y478+Q13131+Q9UGI9); experiment: Activation of AMPK in human HepG2 cells assessed as induction of ACC phosphorylation at Ser79 residue at 10 uM by Western blot analysis; type: cell-based
# HepG2 [5] = experiment: Increase in glucose consumption in human HepG2 cells assessed as glucose content in medium at 10^-6 M measured after 24 hrs by glucose oxidase method relative to berberine; type: functional
# HepG2 [6] = experiment: Increase in glucose consumption in human HepG2 cells assessed as glucose content in medium at 10^-6 M measured after 24 hrs by glucose oxidase method relative to metformin; type: functional
# HepG2 [7] = experiment: Increase in glucose consumption in human HepG2 cells assessed as glucose content in medium at 10^-6 M measured after 24 hrs by glucose oxidase method relative to rosiglitazone; type: functional
# [8] = target: T1, Peroxisome proliferator-activated receptor gamma (Homo sapiens, UniProt P37231); experiment: Transactivation of human PPARgamma transfected in U2OS cells co-tranfected with human RXR measured after 24 hrs by luciferase reporter assay; type: cell-based
# T1 sequence (P37231 whole entry): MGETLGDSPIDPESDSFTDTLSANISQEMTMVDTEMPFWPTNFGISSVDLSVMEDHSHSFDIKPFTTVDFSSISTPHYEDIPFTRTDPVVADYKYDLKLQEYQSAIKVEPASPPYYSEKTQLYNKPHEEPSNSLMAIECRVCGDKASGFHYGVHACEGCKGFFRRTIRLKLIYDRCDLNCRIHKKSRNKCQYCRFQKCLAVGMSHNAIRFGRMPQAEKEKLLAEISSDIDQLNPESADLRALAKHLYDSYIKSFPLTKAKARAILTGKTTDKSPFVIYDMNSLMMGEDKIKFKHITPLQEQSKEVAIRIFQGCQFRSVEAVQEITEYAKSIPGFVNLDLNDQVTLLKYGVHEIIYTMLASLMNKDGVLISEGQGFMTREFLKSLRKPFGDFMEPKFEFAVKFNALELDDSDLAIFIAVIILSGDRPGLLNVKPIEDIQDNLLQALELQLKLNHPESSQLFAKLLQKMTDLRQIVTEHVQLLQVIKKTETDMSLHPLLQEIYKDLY
# [9] = Oral bioavailability in rat; type: ADME, organism-based; details: in vivo
Structure (SMILES),Activity (HepG2 [1]) [%],further results
COc1ccc(OC)c2c[n+]3c(cc12)-c1cc2c(cc1CC3CC(=O)O)OCO2.[Cl-] (stereo unspecified),9.44,–
O=C(O)C1CCC2C(C1)c1cc(OCc3ccccc3)ccc1N2C(=O)c1ccc(Cl)cc1 (stereo unspecified),–,Activity [2]: 362 nM
COc1ccc2c(c1OC)C[N+]1(Cc3ccc(C(=O)O)cc3)CCc3cc4c(cc3C1C2)OCO4.[Cl-] (stereo unspecified),12.11,–
COc1cc(OC)c2cc3[n+](cc2c1)C(C(=O)O)Cc1cc2c(cc1-3)OCO2.[Cl-] (stereo unspecified),8.62,–
COc1ccc2c(c1OC)CN1C(C(=O)O)Cc3cc4c(cc3C1C2)OCO4 (stereo unspecified),6.39,–
COc1ccc2c(c1OC)CN1C(CC(=O)O)Cc3cc4c(cc3C1C2)OCO4 (stereo unspecified),7.16,–
COc1cc(OC)c2cc3[n+](cc2c1)C(CC(=O)O)Cc1cc2c(cc1-3)OCO2.[Cl-] (stereo unspecified),9.02,–
CN(C)C(=N)NC(=N)N [METFORMIN],12.07,–
COc1cc2c(cc1OC)CN1C(C(=O)O)Cc3cc4c(cc3C1C2)OCO4 (stereo unspecified),16.76,Activity (HepG2 [3]): Active; Activity [4]: Active; fold change (FC) (HepG2 [5]): 3.23; fold change (FC) (HepG2 [6]): 1.39; fold change (FC) (HepG2 [7]): 1.2; EC50 [8]: > 100 µM
COc1ccc2cc3[n+](cc2c1OC)C(CC(=O)O)Cc1cc2c(cc1-3)OCO2.[Cl-] (stereo unspecified),2.8,–
COc1ccc(OC)c2c[n+]3c(cc12)-c1cc2c(cc1CC3C(=O)O)OCO2.[Cl-] (stereo unspecified),7.44,–
COc1cc2c[n+]3c(cc2c(OC)c1OC)-c1cc2c(cc1CC3CC(=O)O)OCO2.[Cl-] (stereo unspecified),10.18,–
COc1cc2cc3[n+](cc2cc1OC)C(CC(=O)O)Cc1cc2c(cc1-3)OCO2.[Cl-] (stereo unspecified),15.31,–
COc1ccc2c(c1OC)C[N+]1(CCCCC(=O)O)CCc3cc4c(cc3C1C2)OCO4.[Cl-] (stereo unspecified),14.52,–
COc1ccc2cc3[n+](cc2c1OC)CCc1cc2c(cc1-3)OCO2.[Cl-] [BERBERINE CHLORIDE],5.16,bioavailability [9]: < 1%
COc1cc2c[n+]3c(cc2c(OC)c1OC)-c1cc2c(cc1CC3C(=O)O)OCO2.[Cl-] (stereo unspecified),9.1,–
COc1cc2cc3[n+](cc2cc1OC)C(C(=O)O)Cc1cc2c(cc1-3)OCO2.[Cl-] (stereo unspecified),6.92,Activity (HepG2 [3]): Active; Activity [4]: Active; EC50 [8]: > 100 µM
COc1cc2c(c(OC)c1)CC1c3cc4c(cc3CC(C(=O)O)N1C2)OCO4 (stereo unspecified),9.65,–
COc1ccc2cc3[n+](cc2c1OC)C(C(=O)O)Cc1cc2c(cc1-3)OCO2.[Cl-] (stereo unspecified),1.88,–
COc1ccc2c(c1OC)C[N+]1(CCCCCC(=O)O)CCc3cc4c(cc3C1C2)OCO4.[Cl-] (stereo unspecified),15.78,–
COc1ccc2c(c1OC)C[N+]1(CCCC(=O)O)CCc3cc4c(cc3C1C2)OCO4.[Cl-] (stereo unspecified),16,fold change (FC) (HepG2 [6]): 1.32; fold change (FC) (HepG2 [7]): 1.15
COc1ccc(OC)c2c1CC1c3cc4c(cc3CC(C(=O)O)N1C2)OCO4 (stereo unspecified),12.43,–
COc1ccc2c(c1OC)C[N+]1(CC(=O)O)CCc3cc4c(cc3C1C2)OCO4.[Cl-] (stereo unspecified),15.4,–
CN(CCOc1ccc(CC2SC(=O)NC2=O)cc1)c1ccccn1 (stereo unspecified) [ROSIGLITAZONE],13.87,–

# — ChEMBL document CHEMBL4406871, “Novel berberine-based derivatives with potent hypoglycemic activity” (Bioorg Med Chem Lett, 2019)
